Reference: patent publication US8546320B2, “Hsp9O-targeted anti-cancer chimeric peptide” (Kyoto University, priority 2008, dated 2013)
Where a SMILES comes first, the peptide text is derived from it.

Key:
Caki-1 = assay type: cell-based, human; details: Caki-1; wild-type peptide = 100%
U937 = assay: cells; assay type: cell-based, human; details: for killing effect compared with the wild-type peptide / Anti-cancer activity (% relative to wild-type peptide) / Decrease in cell survival rate (% relative to wild-type peptide): U937; for Anti-cancer activity (% relative to wild-type peptide) / Decrease in cell survival rate (% relative to wild-type peptide): wild-type peptide = 100%
Protocol: A total of 3×10^3 cells per well were inoculated onto a 96 well plate, and incubated in a medium containing 10% FBS with 100 μl of a peptide diluted stepwise at 37° C. for 48 to 72 hours. The survival rate of the cells was measured by using WST-8 solution (Cell Count Reagent SF; Nacalai Tesque, Inc.).

cancer cells = assay: Cell viability assay, summary statements on cancer cells; assay type: cell-based; details: single mutation in TPR or Antp region of Antp-TPR

SMILES	Anti-cancer activity (% relative to wild-type peptide) (Caki-1) [%]	Decrease in cell survival rate (% relative to wild-type peptide) (Caki-1) [%]	Cell Survival Rate (%) (U937)	killing effect compared with the wild-type peptide (U937)	Anti-cancer activity (% relative to wild-type peptide) (U937) [%]	Decrease in cell survival rate (% relative to wild-type peptide) (U937) [%]	effect compared with the wild-type protein (summary of mutations) (cancer cells)
CC[C@H](C)[C@H](NC(=O)[C@H](CCCNC(=N)N)NC(=O)[C@H](C)NC(=O)[C@H](Cc1ccc(O)cc1)NC(=O)[C@H](C)NC(=O)[C@H](CCCCN)NC(=O)[C@H](CCCCN)NC(=O)[C@H](CCCCN)NC(=O)[C@H](Cc1c[nH]c2ccccc12)NC(=O)[C@H](CCCCN)NC(=O)[C@H](CCSC)NC(=O)[C@H](CCCNC(=N)N)NC(=O)[C@H](CCCNC(=N)N)NC(=O)[C@H](CC(N)=O)NC(=O)[C@H](CCC(N)=O)NC(=O)[C@H](Cc1ccccc1)NC(=O)[C@H](Cc1c[nH]c2ccccc12)NC(=O)[C@@H](NC(=O)[C@H](CCCCN)NC(=O)[C@@H](NC(=O)[C@H](CCC(N)=O)NC(=O)[C@@H](N)CCCNC(=N)N)[C@@H](C)CC)[C@@H](C)CC)C(=O)N[C@@H](C)C(=O)N[C@@H](CC(N)=O)C(=O)N[C@@H](CO)C(=O)N[C@@H](Cc1ccc(O)cc1)C(=O)N[C@@H](Cc1ccccc1)C(=O)N[C@@H](CCCCN)C(=O)O [Antp-G7A] (H-RQIKIWFQNRRMKWKKKAYARIANSYFK-OH; N-terminus and C-terminus assumed)	96.23	76.07	16.85	increase in effect	108.32	137.88	effect similar to that of the wild-type protein
CC[C@H](C)[C@H](NC(=O)[C@H](CCCCN)NC(=O)[C@@H](NC(=O)[C@H](CCC(N)=O)NC(=O)[C@@H](N)CCCNC(=N)N)[C@@H](C)CC)C(=O)N[C@@H](Cc1c[nH]c2ccccc12)C(=O)N[C@@H](Cc1ccccc1)C(=O)N[C@@H](CCC(N)=O)C(=O)N[C@@H](CC(N)=O)C(=O)N[C@@H](CCCNC(=N)N)C(=O)N[C@@H](CCCNC(=N)N)C(=O)N[C@@H](CCSC)C(=O)N[C@@H](CCCCN)C(=O)N[C@@H](Cc1c[nH]c2ccccc12)C(=O)N[C@@H](CCCCN)C(=O)N[C@@H](CCCCN)C(=O)N[C@@H](CCCCN)C(=O)N[C@@H](C)C(=O)N[C@@H](Cc1ccc(O)cc1)C(=O)N[C@@H](C)C(=O)N[C@@H](CCCNC(=N)N)C(=O)N[C@@H](CCCNC(=N)N)C(=O)NCC(=O)N[C@@H](CC(N)=O)C(=O)N[C@@H](CO)C(=O)N[C@@H](Cc1ccc(O)cc1)C(=O)N[C@@H](Cc1ccccc1)C(=O)N[C@@H](CCCCN)C(=O)O [Antp-I6R] (H-RQIKIWFQNRRMKWKKKAYARRGNSYFK-OH; N-terminus and C-terminus assumed)	1.95	10.87	91.60	–	10.92	25.36	effective but with a lower effect than the wild-type protein
CC[C@H](C)[C@H](NC(=O)[C@H](CCCNC(=N)N)NC(=O)[C@H](C)NC(=O)[C@H](Cc1ccc(O)cc1)NC(=O)[C@H](C)NC(=O)[C@H](C)NC(=O)[C@H](CCCCN)NC(=O)[C@H](CCCCN)NC(=O)[C@H](Cc1c[nH]c2ccccc12)NC(=O)[C@H](CCCCN)NC(=O)[C@H](CCSC)NC(=O)[C@H](CCCNC(=N)N)NC(=O)[C@H](CCCNC(=N)N)NC(=O)[C@H](CC(N)=O)NC(=O)[C@H](CCC(N)=O)NC(=O)[C@H](Cc1ccccc1)NC(=O)[C@H](Cc1c[nH]c2ccccc12)NC(=O)[C@@H](NC(=O)[C@H](CCCCN)NC(=O)[C@@H](NC(=O)[C@H](CCC(N)=O)NC(=O)[C@@H](N)CCCNC(=N)N)[C@@H](C)CC)[C@@H](C)CC)C(=O)NCC(=O)N[C@@H](CC(N)=O)C(=O)N[C@@H](CO)C(=O)N[C@@H](Cc1ccc(O)cc1)C(=O)N[C@@H](Cc1ccccc1)C(=O)N[C@@H](CCCCN)C(=O)O [Antp-K1A] (H-RQIKIWFQNRRMKWKKAAYARIGNSYFK-OH; N-terminus and C-terminus assumed)	20.29	13.04	93.55	–	8.41	24.84	effective but with a lower effect than the wild-type protein
CC[C@H](C)[C@H](NC(=O)[C@H](CCCNC(=N)N)NC(=O)[C@H](C)NC(=O)[C@H](Cc1ccc(O)cc1)NC(=O)[C@H](C)NC(=O)[C@H](CCCNC(=N)N)NC(=O)[C@H](CCCCN)NC(=O)[C@H](CCCCN)NC(=O)[C@H](Cc1c[nH]c2ccccc12)NC(=O)[C@H](CCCCN)NC(=O)[C@H](CCSC)NC(=O)[C@H](CCCNC(=N)N)NC(=O)[C@H](CCCNC(=N)N)NC(=O)[C@H](CC(N)=O)NC(=O)[C@H](CCC(N)=O)NC(=O)[C@H](Cc1ccccc1)NC(=O)[C@H](Cc1c[nH]c2ccccc12)NC(=O)[C@@H](NC(=O)[C@H](CCCCN)NC(=O)[C@@H](NC(=O)[C@H](CCC(N)=O)NC(=O)[C@@H](N)CCCNC(=N)N)[C@@H](C)CC)[C@@H](C)CC)C(=O)NCC(=O)N[C@@H](CC(N)=O)C(=O)N[C@@H](CO)C(=O)N[C@@H](Cc1ccc(O)cc1)C(=O)N[C@@H](Cc1ccccc1)C(=O)N[C@@H](CCCCN)C(=O)O [Antp-K1R] (H-RQIKIWFQNRRMKWKKRAYARIGNSYFK-OH; N-terminus and C-terminus assumed)	35.81	15.70	91.39	–	11.22	25.43	effective but with a lower effect than the wild-type protein
CC[C@H](C)[C@H](NC(=O)[C@H](CCCNC(=N)N)NC(=O)[C@H](C)NC(=O)[C@H](Cc1ccc(O)cc1)NC(=O)[C@H](C)NC(=O)[C@H](CCCCN)NC(=O)[C@H](CCCCN)NC(=O)[C@H](CCCCN)NC(=O)[C@H](Cc1c[nH]c2ccccc12)NC(=O)[C@H](CCCCN)NC(=O)[C@H](CCSC)NC(=O)[C@H](CCCNC(=N)N)NC(=O)[C@H](CCCNC(=N)N)NC(=O)[C@H](CC(N)=O)NC(=O)[C@H](CCC(N)=O)NC(=O)[C@H](Cc1ccccc1)NC(=O)[C@H](Cc1c[nH]c2ccccc12)NC(=O)[C@@H](NC(=O)[C@H](CCCCN)NC(=O)[C@@H](NC(=O)[C@H](CCC(N)=O)NC(=O)[C@@H](N)CCCNC(=N)N)[C@@H](C)CC)[C@@H](C)CC)C(=O)NCC(=O)N[C@@H](CC(N)=O)C(=O)N[C@@H](CO)C(=O)N[C@@H](Cc1ccc(O)cc1)C(=O)N[C@@H](Cc1ccccc1)C(=O)N[C@@H](CCCNC(=N)N)C(=O)O [Antp-K12R] (H-RQIKIWFQNRRMKWKKKAYARIGNSYFR-OH; N-terminus and C-terminus assumed)	90.20	54.95	21.95	increase in effect	101.68	105.89	effect similar to that of the wild-type protein
